Patent US20230321055A1, “PREVENTIVE TREATMENT OF MIGRAINE” (priority 2022, published 2023)

Tested on: participants with chronic migraine
Test: Phase 3 randomized, double-blind, placebo-controlled study of atogepant for prevention of chronic migraine: eDiary efficacy (migraine, headache and acute medication use days, responder rates)
Type: in vivo, human
Settings: for MMDs, LS mean difference vs. placebo / participants with ≥50% reduction in 3-month average of MMDs / ≥50% reduction in 3-month average of MMDs, OR vs placebo: Europe subpopulation; for LSM change from baseline in mean monthly acute medication use days / mean monthly acute medication use days, LSM difference vs placebo: acute medication over-users; for participants with ≥50% reduction in mean MMDs across the 12-week treatment period: acute medication overuse participants; for LSM change from baseline in mean MMDs across 12 weeks: participants with acute medication overuse at baseline; for mean change from baseline in MMDs: weeks 1-4 of treatment
Description: A phase 3, multicenter, randomized, double-blind, placebo-controlled, parallel-group study was carried out to evaluate the efficacy, safety, and tolerability of atogepant for the prevention of chronic migraine. A total of 778 participants from 133 sites in North America, Europe, and East Asia were randomized to one of three treatment arms (placebo, Atogepant 30 mg BID, and Atogepant 60 mg QD) in a 1:1:1 ratio.
This study comprised a 4-week screening and baseline period, a 12-week double blind treatment period, and a follow-up period of 4 additional weeks. The total study duration was 20 weeks. Participant disposition information and other relevant participant screening information may also be found in FIG. 19.
The primary end point was the change from baseline in the mean number of migraine days per month across the 12 week treatment period.
Secondary endpoints included change from baseline in mean monthly headache days across the 12 week treatment period; change from baseline in mean monthly acute medication use days across the 12-week treatment period; at least a 50% reduction in mean monthly migraine days across the 12-week treatment period; change from baseline in MSQ v2.1 Role Function-Restrictive domain score at week 12; change from baseline in mean AIM-D monthly functioning and activity impairment score across the 12-week treatment period; and change from baseline in HIT-6 total score at week 12.
Inclusion criteria included at least a 1-year history of chronic migraine consistent with diagnosis according to the International Classification of Headache Disorders, 3rd Edition (ICHD-3) and age of the participant at the time of migraine onset <50 years. Inclusion criteria further included confirmation of headache / migraine headache day frequency as follows: history of, on average, ≥15 headache days per month in the 3 months prior to Visit 1 in the opinion of the investigator AND >=15 headache days during the 4-week screening/baseline period per the electronic diary (eDiary) AND >=8 days during the 4-week screening/baseline period that qualify as being a migraine day per the eDiary. Participants were also required to be using a medically acceptable and effective method of birth control during the course of the entire study.
Exclusion criteria included a history of migraine, accompanied by diplopia or decreased level of consciousness, or retinal migraine; a current diagnosis of new persistent daily headache, trigeminal autonomic cephalgia (e.g., cluster headache), or painful cranial neuropathy; history of an inadequate response to >4 medications (2 of which have different mechanisms of action) prescribed for the prevention of migraine; and woman who is pregnant, planning to become pregnant during the course of the study, or currently lactating.
• All Screened Participants includes those screened participants who signed informed consent form. • The Intent-to-Treat Population includes all randomized participants. […] Treatment groups assigned as randomized.
A Subset of patients (11%) was allowed to use one concomitant migraine preventive medication (e.g., amitriptyline, propranolol, topiramate). Patients were allowed to use acute headache treatments (i.e., triptans, ergotamine derivatives, NSAIDs, acetaminophen, and opioids) as needed. Patients with acute medication overuse and medication overuse headache were also enrolled. The use of a concomitant medication that acts on the CGRP pathway was not permitted for either acute or preventive treatment of migraine. The study excluded patients with myocardial infarction, stroke, or transient ischemic attacks within six months prior to screening.
Outcomes for this analysis included change from baseline in mean MMDs during 4-week intervals, change in weekly migraine days during weeks 1-4, and the proportion of participants with a migraine on each day during the first 7 days of treatment. […] Baseline MMDs ranged from 18.6 to 19.2 across treatment groups. […]

[1] = 30 mg BID, Off-Treatment Hypothetical Estimand population
[2] = 30 mg BID, mITT, listed as atogepant
[3] = 60 mg QD, Off-Treatment Hypothetical Estimand population
[4] = 60 mg QD, mITT, listed as atogepant
[5] = range over 30 mg twice daily and 60 mg once daily

C[C@@H]1[C@H](c2c(F)ccc(F)c2F)C[C@H](NC(=O)c2cnc3c(c2)C[C@@]2(C3)C(=O)Nc3ncccc32)C(=O)N1CC(F)(F)F [Atogepant, (S)—N—((3S,5S,6R)-6-methyl-2-oxo-1-(2,2,2-trifluoroethyl)-5-(2,3,6-trifluorophenyl)piperidin-3-yl)-2′-oxo-1′,2′,5,7-tetrahydrospiro[cyclopenta[b]pyridine-6,3′-pyrrolo[2,3-b]pyridine]-3-carboxamide]
MMDs, LS mean difference vs. placebo (30 mg BID): −3.02
participants with ≥50% reduction in 3-month average of MMDs (30 mg BID): 48.4%
≥50% reduction in 3-month average of MMDs, OR vs placebo (30 mg BID): 1.87
LS mean change in MMDs (30 mg BID, Europe subpopulation of OTHE population (n=91)): −8.44
decrease of monthly migraine days across the 12 weeks (30 mg BID, OTHE population): 7.33 days
>=50% reduction in 3-month average of monthly migraine days, Odds ratio Atogepant vs. Placebo [1]: 2.03
Change from baseline in mean monthly acute medication use days across the 12-week treatment period, LS Mean [1]: -6.61 days
Change from baseline in mean monthly acute medication use days across the 12-week treatment period, LSMD Atogepant vs. Placebo [1]: -2.52 days
Change from baseline in mean monthly headache days across the 12-week treatment period, LS Mean [1]: -7.32 days
Change from baseline in mean monthly headache days across the 12-week treatment period, LSMD Atogepant vs. Placebo [1]: -2.14 days
Change from baseline in mean monthly migraine days across the 12-week treatment period, LS Mean [1]: -7.33 days
Change from baseline in mean monthly migraine days across the 12-week treatment period, LSMD Atogepant vs. Placebo [1]: -2.24 days
>=50% reduction in 3-month average of monthly migraine days, Responders (30 mg BID, Off-Treatment Hypothetical Estimand population (N = 254)): 107 (42.1) n (%)
LSM change from baseline in mean monthly acute medication use days (30 mg BID): −8.4
mean monthly acute medication use days, LSM difference vs placebo (30 mg BID): −2.8
participants with ≥50% reduction in mean MMDs across the 12-week treatment period (30 mg BID): 44.7%
>=50% reduction in 3-month average of monthly migraine days, Odds ratio Atogepant vs. Placebo (30 mg BID, mITT): 2.13
Change from baseline in mean monthly acute medication use days across the 12-week treatment period, LS Mean (30 mg BID, mITT): -6.73 days
Change from baseline in mean monthly acute medication use days across the 12-week treatment period, LSMD Atogepant vs. Placebo (30 mg BID, mITT): -2.63 days
Change from baseline in mean monthly headache days across the 12-week treatment period, LS Mean (30 mg BID, mITT): -7.44 days
Change from baseline in mean monthly headache days across the 12-week treatment period, LSMD Atogepant vs. Placebo (30 mg BID, mITT): -2.32 days
Change from baseline in mean monthly migraine days across the 12-week treatment period, LS Mean (30 mg BID, mITT): -7.46 days
Change from baseline in mean monthly migraine days across the 12-week treatment period, LSMD Atogepant vs. Placebo (30 mg BID, mITT): -2.41 days
decrease of monthly migraine days across the 12 weeks (30 mg BID, mITT): 7.46 days
participants with ≥30% reduction in mean MMDs across 12 weeks (30 mg BID, mITT): 62.1%
participants with ≥50% reduction in mean MMDs across 12 weeks (30 mg BID, mITT): 42.7%
participants with ≥75% reduction in mean MMDs across 12 weeks (30 mg BID, mITT): 21.3%
Change from baseline in mean monthly migraine days across the 12-week treatment period, LS Mean [2]: -7.5 days
Change from baseline in mean monthly migraine days across the 12-week treatment period, LSMD Atogepant vs. Placebo [2]: -2.4 days
LSM change from baseline in mean MMDs across 12 weeks (30 mg BID): −8.3
mean change from baseline in MMDs (30 mg BID): -6.6 days
participants with <30% reduction in mean MMDs in month 1 who experienced ≥30% reduction in either month 2 or 3 (30 mg twice daily): 50/96
participants with <30% reduction in mean MMDs in month 1 who experienced ≥30% reduction in month 2 (30 mg twice daily): 36/99
participants with <50% reduction in mean MMDs in month 1 who experienced ≥50% reduction in either month 2 or 3 (30 mg twice daily): 52/132
participants with <50% reduction in mean MMDs in month 1 who experienced ≥50% reduction in month 2 (30 mg twice daily): 32/136
participants without ≥30% reduction in mean MMDs in months 1 or 2 who experienced a ≥30% response by the end of the trial (30 mg twice daily): 23.3%
participants without ≥50% reduction in mean MMDs in months 1 or 2 who experienced a ≥50% response by the end of the trial (30 mg twice daily): 20.0%
sustained response among participants with ≥75% response in month 1 (30 mg twice daily, mITT): 46.9%
sustained response of ≥30% in months 2 and 3 among participants with ≥30% response in month 1 (30 mg twice daily, mITT): 81.8%
sustained response of ≥50% in months 2 and 3 among participants with ≥50% response in month 1 (30 mg twice daily, mITT): 71.6%
MMDs, LS mean difference vs. placebo (60 mg QD): −2.59
participants with ≥50% reduction in 3-month average of MMDs (60 mg QD): 46.7%
≥50% reduction in 3-month average of MMDs, OR vs placebo (60 mg QD): 1.84
LS mean change in MMDs (60 mg QD, Europe subpopulation of OTHE population (n=90)): −8.00
decrease of monthly migraine days across the 12 weeks (60 mg QD, OTHE population): 6.75 days
>=50% reduction in 3-month average of monthly migraine days, Odds ratio Atogepant vs. Placebo [3]: 1.90
Change from baseline in mean monthly acute medication use days across the 12-week treatment period, LS Mean [3]: -6.19 days
Change from baseline in mean monthly acute medication use days across the 12-week treatment period, LSMD Atogepant vs. Placebo [3]: -2.09 days
Change from baseline in mean monthly headache days across the 12-week treatment period, LS Mean [3]: -6.90 days
Change from baseline in mean monthly headache days across the 12-week treatment period, LSMD Atogepant vs. Placebo [3]: -1.72 days
Change from baseline in mean monthly migraine days across the 12-week treatment period, LS Mean [3]: -6.75 days
Change from baseline in mean monthly migraine days across the 12-week treatment period, LSMD Atogepant vs. Placebo [3]: -1.66 days
>=50% reduction in 3-month average of monthly migraine days, Responders (60 mg QD, Off-Treatment Hypothetical Estimand population (N = 257)): 103 (40.1) n (%)
LSM change from baseline in mean monthly acute medication use days (60 mg QD): −8.1
mean monthly acute medication use days, LSM difference vs placebo (60 mg QD): −2.6
participants with ≥50% reduction in mean MMDs across the 12-week treatment period (60 mg QD): 41.8%
>=50% reduction in 3-month average of monthly migraine days, Odds ratio Atogepant vs. Placebo (60 mg QD, mITT): 2.04
Change from baseline in mean monthly acute medication use days across the 12-week treatment period, LS Mean (60 mg QD, mITT): -6.23 days
Change from baseline in mean monthly acute medication use days across the 12-week treatment period, LSMD Atogepant vs. Placebo (60 mg QD, mITT): -2.13 days
Change from baseline in mean monthly headache days across the 12-week treatment period, LS Mean (60 mg QD, mITT): -7.00 days
Change from baseline in mean monthly headache days across the 12-week treatment period, LSMD Atogepant vs. Placebo (60 mg QD, mITT): -1.87 days
Change from baseline in mean monthly migraine days across the 12-week treatment period, LS Mean (60 mg QD, mITT): -6.88 days
Change from baseline in mean monthly migraine days across the 12-week treatment period, LSMD Atogepant vs. Placebo (60 mg QD, mITT): -1.82 days
decrease of monthly migraine days across the 12 weeks (60 mg QD, mITT): 6.88 days
participants with ≥30% reduction in mean MMDs across 12 weeks (60 mg QD, mITT): 59.0%
participants with ≥50% reduction in mean MMDs across 12 weeks (60 mg QD, mITT): 41.0%
participants with ≥75% reduction in mean MMDs across 12 weeks (60 mg QD, mITT): 18.8%
Change from baseline in mean monthly migraine days across the 12-week treatment period, LS Mean [4]: -6.9 days
Change from baseline in mean monthly migraine days across the 12-week treatment period, LSMD Atogepant vs. Placebo [4]: -1.8 days
LSM change from baseline in mean MMDs across 12 weeks (60 mg QD): −7.5
mean change from baseline in MMDs (60 mg QD): -6.2 days
participants with <30% reduction in mean MMDs in month 1 who experienced ≥30% reduction in either month 2 or 3 (60 mg once daily): 45/108
participants with <30% reduction in mean MMDs in month 1 who experienced ≥30% reduction in month 2 (60 mg once daily): 31/113
participants with <50% reduction in mean MMDs in month 1 who experienced ≥50% reduction in either month 2 or 3 (60 mg once daily): 38/139
participants with <50% reduction in mean MMDs in month 1 who experienced ≥50% reduction in month 2 (60 mg once daily): 28/146
participants without ≥30% reduction in mean MMDs in months 1 or 2 who experienced a ≥30% response by the end of the trial (60 mg once daily): 17.1%
participants without ≥50% reduction in mean MMDs in months 1 or 2 who experienced a ≥50% response by the end of the trial (60 mg once daily): 8.2%
sustained response among participants with ≥75% response in month 1 (60 mg once daily, mITT): 52.5%
sustained response of ≥30% in months 2 and 3 among participants with ≥30% response in month 1 (60 mg once daily, mITT): 81.6%
sustained response of ≥50% in months 2 and 3 among participants with ≥50% response in month 1 (60 mg once daily, mITT): 74.2%
likelihood of having a migraine vs placebo (first full day after treatment initiation, atogepant-treated participants, P≤0.03): significantly less likely
participants with <30% reduction in mean MMDs in month 1 who experienced ≥30% reduction in either month 2 or 3 [5]: 41.7%-52.1%
participants with <30% reduction in mean MMDs in month 1 who experienced ≥30% reduction in month 2 [5]: 27.4%-36.4%
participants with <50% reduction in mean MMDs in month 1 who experienced ≥50% reduction in either month 2 or 3 [5]: 27.3%-39.4%
participants with <50% reduction in mean MMDs in month 1 who experienced ≥50% reduction in month 2 [5]: 19.2%-23.5%
